Data: patent US7425557B2, “Inhibitors of glycogen synthase kinase 3” (Novartis Vaccines and Diagnostics, Inc., priority 1998, dated 2008)

Molecular target: human GSK3β (Homo sapiens, UniProt P49841)
Assay: Screening for GSK3 inhibitory activity using a cell-free assay
Type: biochemical
Conditions: read-out: IC50 with respect to GSK3
In short: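 Radiometric cell-free assay with recombinant human GSK3β phosphorylating a biotinylated peptide substrate for 3 h. Reactions were stopped with 50 μM ATP/20 mM EDTA and captured on streptavidin plates. Incorporated radiolabel was counted by scintillation and plotted against compound concentration.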

human GSK3β, sequence (P49841 whole entry): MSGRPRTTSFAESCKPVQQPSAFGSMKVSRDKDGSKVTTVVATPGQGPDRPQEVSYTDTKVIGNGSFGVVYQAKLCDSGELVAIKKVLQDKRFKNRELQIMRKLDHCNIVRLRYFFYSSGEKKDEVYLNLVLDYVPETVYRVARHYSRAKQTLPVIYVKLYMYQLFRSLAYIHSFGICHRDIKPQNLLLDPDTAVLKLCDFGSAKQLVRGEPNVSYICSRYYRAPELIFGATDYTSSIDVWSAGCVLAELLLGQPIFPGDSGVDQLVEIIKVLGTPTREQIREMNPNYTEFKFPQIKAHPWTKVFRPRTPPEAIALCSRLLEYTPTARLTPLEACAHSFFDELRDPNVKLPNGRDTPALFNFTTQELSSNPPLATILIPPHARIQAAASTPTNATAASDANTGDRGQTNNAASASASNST

Row | Structure (SMILES) | IC50
1 | N#Cc1ccc(-c2nc(NCCNc3ccc([N+](=O)[O-])cn3)ncc2C(=O)OCCN2CCOCC2)cc1 [2-morpholin-4-ylethyl 4-(4-cyanophenyl)-2-({2-[(5-nitro(2-pyridyl))amino]ethyl}-amino)pyrimidine-5-carboxylate] | ≤ 1000 nM
2 | COc1cccc(NCCNc2nccc(-c3ccc(C(=O)NCc4cccc(Br)c4)cc3)n2)n1 [N-[(3-bromophenyl)methyl]{4-[2-({2-[(6-methoxy(2-pyridyl))amino]ethyl}amino)pyrimidin-4-yl]phenyl}carboxamide] | ≤ 10000 nM
3 | N#Cc1ccc(NCCNCc2ncc(-c3ncc[nH]3)c(-c3ccc(Cl)cc3Cl)n2)nc1 [6-[(2-{[4-(2,4-dichlorophenyl)-5-imidazol-2-ylpyrimidin-2-yl]methylamino}ethyl)amino]pyridine-3-carbonitrile] | ≤ 1000 nM
4 | CCOC(=O)c1cnc(NCCNc2ccc(C(=O)O)cn2)nc1-c1ccc(C#N)cc1 [6-[(2-{[4-(4-cyanophenyl)-5-(ethoxycarbonyl)pyrimidin-2-yl]amino}ethyl)amino]pyridine-3-carboxylic acid] | ≤ 10000 nM
5 | Cc1cn(-c2ccccc2)nc1-c1ccnc(NCCNc2ccccn2)n1 [[4-(4-methyl-1-phenylpyrazol-3-yl)pyrimidin-2-yl][2-(2-pyridyl-amino)ethyl]amine] | ≤ 10000 nM
6 | CCCCOC(=O)c1cnc(NCCNc2ccc([N+](=O)[O-])cn2)nc1-c1ccc(C#N)cc1 [butyl 4-(4-cyanophenyl)-2-({2-[(5-nitro(2-pyridyl))amino]ethyl}amino)pyrimidine-5-carboxylate] | ≤ 1000 nM
7 | O=C(NCc1cccc(Br)c1)c1ccc(-c2ccnc(NCCCNc3ccc([N+](=O)[O-])cn3)n2)cc1 [N-[(3-bromophenyl)methyl]{4-[2-({3-[(5-nitro(2-pyridyl))-amino]propyl}amino)pyrimidin-4-yl]phenyl}carboxamide] | ≤ 10000 nM
8 | CCOC(=O)c1cnc(NCCNc2ccc(C(=O)OC(C)(C)C)cn2)nc1-c1ccc(C#N)cc1 [tert-butyl 6-[(2-{[4-(4-cyanophenyl)-5-(ethoxycarbonyl)pyrimidin-2-yl]amino}ethyl)amino]pyridine-3-carboxylate] | ≤ 10000 nM
9 | CCOC(=O)c1cnc(NCCNc2ccc([N+](=O)[O-])cn2)nc1-c1ccc(-n2cnnc2)cc1 [ethyl 2-({2-[(5-nitro(2-pyridyl))amino]ethyl}amino)-4-(4-(1,2,4-triazol-4-yl)phenyl)pyrimidine-5-carboxylate] | ≤ 1000 nM
10 | CCOC(=O)c1cnc(NCCNc2ccc([N+](=O)[O-])cn2)nc1-c1ccc(N2CCOCC2)cc1 [ethyl-4-(morpholin-4-ylphenyl)-2-({2-[(5-nitro(2-pyridyl))amino]ethyl}amino)pyrimidine-5-carboxylate] | ≤ 1000 nM
11 | N#Cc1ccc(-c2nc(NCCNc3ccc([N+](=O)[O-])cn3)ncc2C(=O)O)cc1 [4-(4-cyanophenyl)-2-({2-[(5-nitro(2-pyridyl))amino]ethyl}amino)pyrimidine-5-carboxylic acid] | ≤ 1000 nM
12 | NC(=O)c1ccc(-c2ccnc(NCc3ccc(Cl)cc3Cl)n2)cc1 [4-(2-{[(2,4-dichlorophenyl)methyl]-amino}pyrimidin-4-yl)benzamide] | ≤ 10000 nM
13 | N#Cc1cnc(NCCNc2ccc([N+](=O)[O-])cn2)nc1-c1ccc(Cl)c(Cl)c1 [4-(3,4-dichlorophenyl)-2-({2-[(5-nitro(2-pyridyl))amino]ethyl}amino)pyrimidine-5-carbonitrile] | ≤ 10000 nM
14 | CCOC(=O)c1cnc(NCCNc2cc(C)c([N+](=O)[O-])cn2)nc1-c1ccc(C#N)cc1 [ethyl 4-(4-cyanophenyl)-2-({2-[(4-methyl-5-nitro(2-pyridyl))amino]ethyl}amino)pyrimidine-5-carboxylate] | ≤ 1000 nM
15 | CCOC(=O)c1cnc(NCCNc2ccc([N+](=O)[O-])c(N)n2)nc1-c1ccc(-c2cnco2)cc1 [ethyl 2-({2-[(6-amino-5-nitro(2-pyridyl))amino]ethyl}amino)-4-(4-(1,3-oxazol-5-yl)phenyl)pyrimidine-5-carboxylate] | ≤ 1000 nM
16 | Nc1nc(NCCNc2ncc(N3CCNCC3)c(-c3ccc(Cl)cc3Cl)n2)ccc1[N+](=O)[O-] [{2-[(6-amino-5-nitro(2-pyridyl))amino]-ethyl}[4-(2,4-dichlorophenyl)-5-piperazinylpyrimidin-2-yl]amine] | ≤ 1000 nM
17 | CCOC(=O)c1c(CC)nc(NCCCNc2ccc([N+](=O)[O-])cn2)nc1-c1ccc(C(N)=O)cc1 [ethyl 4-(4-carbamoylphenyl)-6-ethyl-2-({3-[(5-nitro(2-pyridyl))amino]propyl}amino)pyrimidine-5-carboxylate] | ≤ 10000 nM
18 | O=[N+]([O-])c1ccc(NCCNc2ccc([N+](=O)[O-])c(NCc3ccc(Cl)cc3Cl)n2)nc1 [(6-{[(2,4-dichlorophenyl)methyl]amino}-5-nitro(2-pyridyl)){2-[(5-nitro(2-pyridyl))amino]ethyl}amine] | ≤ 10000 nM
19 | CN(C)C(=O)c1cnc(NCCNc2ccc([N+](=O)[O-])cn2)nc1-c1ccc(C#N)cc1 [[4-(4-cyanophenyl)-2-({2-[(5-nitro(2-pyridyl))amino]ethyl}-amino)pyrimidin-5-yl]-N,N-dimethylcarboxamide] | ≤ 1000 nM
20 | N#Cc1ccc(-c2nc(NCCNc3ccc([N+](=O)[O-])cn3)nc(-c3ccc(C#N)cc3)c2C(=O)O)cc1 [4,6-bis(4-cyanophenyl)-2-({2-[(5-nitro(2-pyridyl))amino]ethyl}-amino)pyrimidine-5-carboxylic acid] | ≤ 1000 nM
21 | N#Cc1ccc(-c2nc(NCCNc3ccc([N+](=O)[O-])cn3)nc(-c3ccoc3)c2C(=O)O)cc1 [4-(4-cyanophenyl)-6-(3-furyl)-2-({2-[(5-nitro(2-pyridyl))-amino]ethyl}amino)pyrimidine-5-carboxylic acid] | ≤ 1000 nM
22 | NC(=O)c1ccc(-c2ccnc(NCc3cccc([N+](=O)[O-])c3)n2)cc1 [4-(2-{[(3-nitro-phenyl)methyl]amino}pyrimidin-4-yl)benzamide] | ≤ 10000 nM
23 | O=[N+]([O-])c1ccc(NCCNc2ncc(-n3nnc4ccccc43)c(-c3ccc(Cl)cc3Cl)n2)nc1 [[5-benzotriazolyl-4-(2,4-dichlorophenyl)pyrimidin-2-yl]{2-[(5-nitro(2-pyridyl))amino]ethyl}amine] | ≤ 1000 nM
24 | COc1ccc(OC)c(CCNc2nccc(-c3ccc(C(N)=O)cc3)n2)c1 [4-(2-{[2-(2,5-dimethoxyphenyl)ethyl]amino}pyrimidin-4-yl)benzamide] | ≤ 1000 nM
25 | N#Cc1ccc(-c2nc(NCCNc3ccc([N+](=O)[O-])cn3)ncc2-c2ncc[nH]2)cc1 [4-[5-imidazol-2-yl-2-({2-[(5-nitro(2-pyridyl))amino]ethyl}amino)pyrimidin-4-yl]benzenecarbonitrile] | ≤ 1000 nM
26 | CN(C)CCNC(=O)c1cnc(NCCNc2ccc([N+](=O)[O-])cn2)nc1-c1ccc(C#N)cc1 [N-[2-(dimethylamino)ethyl][4-(4-cyanophenyl)-2-({2-[(5-nitro(2-pyridyl))-amino]ethyl}amino)pyrimidin-5-yl]carboxamide] | ≤ 1000 nM
27 | CNC(=O)c1cnc(NCCNc2ccc([N+](=O)[O-])cn2)nc1-c1ccc(C#N)cc1 [[4-(4-cyanophenyl)-2-({2-[(5-nitro(2-pyridyl))amino]ethyl}amino)-pyrimidin-5-yl]-N-methylcarboxamide] | ≤ 1000 nM
28 | CCOC(=O)c1cnc(NCCNc2ncccn2)nc1-c1ccc(C#N)cc1 [ethyl 4-(4-cyanophenyl)-2-{[2-(pyrimidin-2-ylamino)ethyl]amino}pyrimidine-5-carboxylate] | ≤ 10000 nM
